The source of these data is patent US20080268072A1, “Method of Improving Anticancer Effect of Pulsatillae Radix and a Composition Prepared by the Method” (Song-Bae Kim, priority 2004, published 2008).

One assay concerns tumor. Put plainly: Antitumor activity (test not specified).
The subject of another assay is LL/2 cancer. Conditions: BDF1 mouse; cited from earlier work.
The next assay deals with NCI-H23 cell line. Conditions: comparison with adriamicine; cited from earlier work.

As for “3-0-[0-α-L-rhamnopyranosyl-(1→2)-[0-β-D-glucopyranosyl-(1→4)]-α-L-arabinopyranosyl]hederagenin 28-0-α-L-rhamnopyranosyl-(1→4-[0-β-D-glucopyranosyl-(1→6]-β-D-glucopyranosyl ester [SB 365-0]”, in the assay with tumor, the antitumor activity result is given as “no antitumor activity”.

In the case of `CC1OC(OC2C(O[C@H]3CC[C@@]4(C)C(CC[C@]5(C)C4CC=C4C6CC(C)(C)CC[C@]6(C(=O)O)CC[C@]45C)[C@]3(C)CO)OCC(OC3OC(CO)C(O)C(O)C3O)C2O)C(O)C(O)C1O` (stereo partly drawn) [SB365, 3-0-[0-α-L-rhamnopyranosyl-(1→2)-[0-β-D-glucopyranosyl-(1→4)]-α-L-arabinopyranosyl]hederagenin], in the assay on LL/2 cancer, the “inhibition effect against LL/2 cancer” value is listed as 80%. For the same compound, the “activity against NCI-H23 cell line compared with adriamicine” value in the assay with NCI-H23 cell line is given as “more strong activity”.
